Like-named read-outs stand apart in the source and are kept apart here.

A word on the inhibition: it is the relative decrease from the control value, in per cent.

In assay [1] the test system is Puccinia recondita—PUCCRT. Description: Brown Rust of Wheat, in vivo whole plant, 24 Hour Protectant. The conditions noted are these: for pest or weed control at 100 ppm: Puccinia, read-out: PUCCRT in vivo 1 Day Protectant.
The test system of assay [2] is Stagonospora nodorum (Leptosphaeria nodorum—LEPTNO). Briefly: In vitro fungal growth inhibition, Stagonospora nodorum (LEPTNO). Format: cell-based. The conditions noted are these: Leptosphaeria, read-out: LEPTNO in vitro Growth Inhibition.
Assay [3] has as its system Rhizoctonia solani (RHIZSO). Briefly: microbe, parasite or virus in culture. The conditions noted are these: Rhizoctonia solani, read-out: RHIZSO in vitro Growth Inhibition. Format: cell-based.
The test system of assay [4] is Leptosphaeria nodorum—LEPTNO. Description: Glume Blotch of Wheat, in vivo whole plant, 24 Hour Protectant. Particulars: for pest or weed control at 100 ppm: Leptosphaeria, read-out: LEPTNO in vivo 1 Day Protectant.
The test system of a further assay is Ustilago maydis (USTIMA). Briefly: microbe, parasite or virus in culture. Format: cell-based. The conditions noted are these: Mycosarcoma maydis, read-out: USTIMA in vitro Growth Inhibition.
Assay [5] deals with Magnaporthe grisea (Pyricularia oryzae—PYRIOR). Description: microbe, parasite or virus in culture. Type of assay: cell-based. Particulars: Pyricularia oryzae, read-out: PYRIOR in vitro Growth Inhibition.
Assay [6] has as its system Phytophthora infestans—PHYTIN. Briefly: whole plant or invertebrate. Format: in vivo. Particulars: Phytophthora, in Solanum lycopersicum, 24 h, read-out: PHYTIN in vivo 1 Day Protectant.
In assay [7] the test system is Phytophthora infestans (PHYTIN). Description: microbe, parasite or virus in culture. Format: cell-based. The conditions noted are these: Phytophthora infestans, read-out: PHYTIN in vitro Growth Inhibition.
Assay [8] has as its system Mycosphaerella graminicola (Septoria tritici—SEPTTR). Description: In vitro fungal growth inhibition, Mycosphaerella graminicola (SEPTTR). Type of assay: cell-based. Particulars: Zymoseptoria tritici, read-out: SEPTTR in vitro Growth Inhibition.
Another assay has as its system Septoria tritici—SEPTTR. Briefly: Leaf Blotch of Wheat, in vivo whole plant, 24 Hour Protectant. Particulars: for pest or weed control at 100 ppm: Zymoseptoria tritici, 24 h, read-out: SEPTTR in vivo 1 Day Protectant.
The next assay relates to Erysiphe graminis—ERYSGT. Briefly: Powdery Mildew of Wheat, in vivo whole plant, 24 Hour Protectant. The conditions noted are these: Erysiphe, read-out: ERYSGT in vivo 1 Day Protectant.
[9] abbreviates: wheat plants sprayed at 100 ppm, inoculated after 24 hours, control of fungal infection vs untreated plants.
Where [10] appears, read: 100 ppm spray, wheat, 24 hour protectant, % control of fungal infection vs untreated plants.

Regarding `COC(=O)C(COC(=O)CC(C)OC(=O)C(C)C)NC(=O)c1nccc(OC)c1OC(C)=O` (stereo not drawn) [Compound 586], the pest or weed control at 100 ppm in assay [1] (setting [9]) was 25 to 74%; in [4] (setting [9]), 25 to 74%; in assay [6], below 25%; with Septoria tritici—SEPTTR (setting [9]), 25 to 74%; with Erysiphe graminis—ERYSGT (setting [9]) it was below 25%. The inhibition at 25 ppm (in [2] (25 ppm in the growth medium); in [3]; with Ustilago maydis (USTIMA); in assay [5]; in [7]; in assay [8] (25 ppm in the growth medium)) was below 80% throughout.
On to `COC(=O)C(COC(=O)C(COC(=O)C(C)C)Cc1ccccc1)NC(=O)c1nccc(OC)c1OC(C)=O` (stereo not drawn) [Compound 587], for which the pest or weed control at 100 ppm is 25 to 74% in [1] (setting [9]); 25 to 74% in assay [4] (setting [9]); below 25% in [6]; 25 to 74% with Septoria tritici—SEPTTR (setting [9]); below 25% with Erysiphe graminis—ERYSGT (setting [9]). Also, the inhibition at 25 ppm (in assay [2] (25 ppm in the growth medium); in [3]; with Ustilago maydis (USTIMA); in assay [5]; in assay [7]; in assay [8] (25 ppm in the growth medium)) was below 80% each time.
`COc1ccnc(C(=O)NC(COC(=O)C(C)Cc2ccccc2)C(=O)OC(C)C)c1OC(C)=O` (stereo not drawn) [Compound 588]: the “PUCCRT in vivo 1 Day Protectant” value in assay [1] (setting [9]) was “+ +”. Also, the inhibition at 25 ppm (in assay [2] (25 ppm in the growth medium); in assay [3]; in the assay on Ustilago maydis (USTIMA); in assay [5]; in [7]; in assay [8] (25 ppm in the growth medium)) was below 80% in each case. Moreover, the pest or weed control at 100 ppm is 25 to 74% in assay [4] (setting [9]), below 25% in [6], below 25% in the assay on Septoria tritici—SEPTTR (setting [9]) and below 25% in the assay with Erysiphe graminis—ERYSGT (setting [9]).
With `COc1ccnc(C(=O)NC(COC(=O)C(Cc2ccccc2)C(C)OC(=O)C(C)C)C(=O)OC(C)C)c1OC(C)=O` (stereo not drawn) [Compound 589], the pest or weed control at 100 ppm was 25 to 74% in assay [1] (setting [9]); below 25% in [4] (setting [9]); below 25% in assay [6]; 25 to 74% with Septoria tritici—SEPTTR (setting [9]); below 25% in the assay with Erysiphe graminis—ERYSGT (setting [9]). Further, the inhibition at 25 ppm (in assay [2] (25 ppm in the growth medium); in assay [3]; in the assay on Ustilago maydis (USTIMA); in [5]; in assay [7]; in assay [8] (25 ppm in the growth medium)) was below 80% throughout.
In the case of `COc1ccnc(C(=O)NC(COC(=O)CCc2ccccc2)C(=O)OC(C)COC(=O)C(C)C)c1OC(C)=O` (stereo not drawn) [Compound 590], the pest or weed control at 100 ppm in assay [1] (setting [9]) was 25 to 74%; in assay [4] (setting [9]), 25 to 74%; in assay [6], below 25%; in the assay on Septoria tritici—SEPTTR (setting [9]) it was 25 to 74%; in the assay with Erysiphe graminis—ERYSGT (setting [9]), below 25%. Further, the inhibition at 25 ppm (in assay [2] (25 ppm in the growth medium); in assay [3]; in the assay on Ustilago maydis (USTIMA); in [5]; in assay [7]; in [8] (25 ppm in the growth medium)) was below 80% throughout.
As to `COc1ccnc(C(=O)N[C@@H]2O[C@H](COC(C)=O)[C@H](OC(C)=O)[C@H](OC(C)=O)[C@H]2OC(C)=O)c1OC(C)=O` [Compound 591], the pest or weed control at 100 ppm in [1] (setting [9]) was below 25%; in assay [4] (setting [9]), 25 to 74%; in assay [6], below 25%; with Septoria tritici—SEPTTR (setting [9]), 25 to 74%; in the assay with Erysiphe graminis—ERYSGT (setting [9]) it was below 25%. Moreover, the inhibition at 25 ppm (in assay [2] (25 ppm in the growth medium); in [3]; in the assay with Ustilago maydis (USTIMA); in assay [5]; in [7]; in assay [8] (25 ppm in the growth medium)) was below 80% throughout.
As for `COc1ccnc(C(=O)N[C@@H]2OC[C@@H](OCc3ccccc3)[C@H](OCc3ccccc3)[C@H]2OCc2ccccc2)c1OC(C)=O` [Compound 592], the pest or weed control at 100 ppm was below 25% in assay [1] (setting [9]); 25 to 74% in assay [4] (setting [9]); below 25% in [6]; 25 to 74% in the assay with Septoria tritici—SEPTTR (setting [9]); below 25% in the assay on Erysiphe graminis—ERYSGT (setting [9]). Also, the inhibition at 25 ppm (in assay [2] (25 ppm in the growth medium); in [3]; with Ustilago maydis (USTIMA); in assay [5]; in assay [7]; in [8] (25 ppm in the growth medium)) was below 80% each time.
Consider `COc1ccnc(C(=O)N[C@H]2CO[C@H](C(C)Cc3ccc(C(C)(C)C)cc3)OC2)c1OC(C)=O` (stereo partly drawn) [Compound 594], for which, in assay [1] (setting [9]), the “PUCCRT in vivo 1 Day Protectant” value is “+ +”. Besides, the inhibition at 25 ppm in [2] (25 ppm in the growth medium) was above 80%; in assay [3] it was above 80%; with Ustilago maydis (USTIMA), below 80%; in [5], above 80%; in assay [7], below 80%; in assay [8] (25 ppm in the growth medium), above 80%. For the same compound, the pest or weed control at 100 ppm was 25 to 74% in [4] (setting [9]), below 25% in assay [6], 25 to 74% with Septoria tritici—SEPTTR (setting [9]) and below 25% in the assay with Erysiphe graminis—ERYSGT (setting [9]).
Turning to `COc1ccnc(C(=O)N[C@H]2COC(=O)[C@H](Cc3ccccc3)[C@@H](OC(C)=O)[C@H](C)OC2=O)c1OC(C)=O` [Compound 596], the “PUCCRT in vivo 1 Day Protectant” value in [1] (setting [10]) is “+ +”. Moreover, the inhibition at 25 ppm in [2] (25 ppm in growth medium) was below 80%; in assay [3], below 80%; with Ustilago maydis (USTIMA), below 80%; in assay [5], above 80%; in assay [7] it was above 80%; in [8] (25 ppm in growth medium), below 80%. In addition, the “LEPTNO in vivo 1 Day Protectant” value in assay [4] (setting [10]) is “+ +”. Besides, the pest or weed control at 100 ppm in [6] was below 25%; in the assay with Septoria tritici—SEPTTR (setting [10]), 25 to 74%; with Erysiphe graminis—ERYSGT (setting [10]), below 25%.
As for `C/C=C/C(=O)Oc1c(OC)ccnc1C(=O)N[C@H]1COC(=O)[C@H](Cc2ccccc2)[C@@H](OC(=O)C(C)C)[C@H](C)OC1=O` [Compound 600], in assay [1] (setting [10]), the “PUCCRT in vivo 1 Day Protectant” value is given as “+ +”. Also, the inhibition at 25 ppm is above 80% in assay [2] (25 ppm in growth medium); below 80% in [3]; below 80% in the assay with Ustilago maydis (USTIMA); above 80% in assay [5]; below 80% in [7]; below 80% in [8] (25 ppm in growth medium). Moreover, in [4] (setting [10]), the “LEPTNO in vivo 1 Day Protectant” value is reported as “+ +”. Also, the pest or weed control at 100 ppm (in assay [6]; in the assay with Erysiphe graminis—ERYSGT (setting [10])) was below 25% each time. The “SEPTTR in vivo 1 Day Protectant” value in the assay with Septoria tritici—SEPTTR (setting [10]) is recorded as “+ +”.
Regarding `COc1ccnc(C(=O)N[C@H]2COC(=O)[C@H](Cc3ccccc3)[C@@H](OC(=O)C(C)C)[C@H](C)OC2=O)c1OC(=O)C(C)(C)C` [Compound 605], in assay [1] (setting [10]), the “PUCCRT in vivo 1 Day Protectant” value is reported as “+ +”. The inhibition at 25 ppm (in [2] (25 ppm in growth medium); in assay [3]; with Ustilago maydis (USTIMA); in assay [5]; in [7]; in assay [8] (25 ppm in growth medium)) was below 80% each time. In addition, the “LEPTNO in vivo 1 Day Protectant” value in assay [4] (setting [10]) is recorded as “+ +”. For the same compound, the pest or weed control at 100 ppm (in assay [6]; with Erysiphe graminis—ERYSGT (setting [10])) was below 25% throughout. Further, the “SEPTTR in vivo 1 Day Protectant” value in the assay with Septoria tritici—SEPTTR (setting [10]) is “+ +”.
Take `COc1ccnc(C(=O)N[C@H]2COC(=O)[C@H](Cc3ccccc3)[C@@H](OC(=O)C(C)C)[C@H](C)OC2=O)c1OC(=O)C=C(C)C` [Compound 607]: in assay [1] (setting [10]), the “PUCCRT in vivo 1 Day Protectant” value was “+ +”. The inhibition at 25 ppm is above 80% in [2] (25 ppm in growth medium); below 80% in assay [3]; below 80% in the assay on Ustilago maydis (USTIMA); below 80% in [5]; below 80% in assay [7]; below 80% in [8] (25 ppm in growth medium). Further, the pest or weed control at 100 ppm was 25 to 74% in assay [4] (setting [10]), below 25% in [6] and below 25% in the assay with Erysiphe graminis—ERYSGT (setting [10]). Moreover, in the assay with Septoria tritici—SEPTTR (setting [10]), the “SEPTTR in vivo 1 Day Protectant” value is “+ +”.

The values are drawn from patent US6706740B2, “Fungicidal heterocyclic aromatic amides and their compositions, methods of use and preparation” (Dow AgroSciences LLC, priority 1999, dated 2004).
